How the values were obtained:
[1] = tested on: ABUTH (Velvetleaf); experiment: Postemergence herbicidal evaluation; assay type: in vivo, Abutilon theophrasti; conditions: postemergence
Method in brief: (§1)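 Young plants, roughly two weeks from seeding, receive the active ingredient as a sprayed dispersion (acetone/water 50/50, 0.5% TWEEN 20) at 40 psi. Doses span about 0.0156 to 0.500 kg/ha. A visual score from 0 to 9 compares treated with control plants four to five weeks on.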

[2] = tested on: AMBEL (Ragweed, Common); experiment: Postemergence herbicidal evaluation; assay type: in vivo, Ambrosia artemisifolia; conditions: postemergence
Method in brief: as §1

[3] = tested on: ECHCG (Barnyardgrass); experiment: Postemergence herbicidal evaluation; assay type: in vivo, Echinochloa crus-galli; conditions: postemergence
Method in brief: as §1

[4] = tested on: SETVI (Foxtail, Green); experiment: Postemergence herbicidal evaluation; assay type: in vivo, Setaria viridis; conditions: postemergence
Method in brief: as §1

[5] = tested on: TRZAWR (Wheat, Winter, cv Riband); experiment: Postemergence herbicidal evaluation; assay type: in vivo, Triticum aestivum; conditions: postemergence
Method in brief: as §1

[6] = tested on: CASOB (Sicklepod); experiment: Preemergence herbicidal evaluation; assay type: in vivo, Cassia obtusifolia; conditions: rated 4-5 weeks after treatment
Method in brief: (§2)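 Test compound, dissolved in aqueous acetone, was sprayed over planted soil cups at an equivalent of about 0.0156 to 0.500 kg/ha; seeds had been mixed with potting soil. Greenhouse growth followed, with visual 0-9 scoring of injury at four to five weeks.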

[7] = tested on: CHEAL (Lambsquarters, Common); experiment: Preemergence herbicidal evaluation; assay type: in vivo, Chenopodium album; conditions: rated 4-5 weeks after treatment
Method in brief: as §2

[8] = tested on: ECHCG (Barnyardgrass); experiment: Preemergence herbicidal evaluation; assay type: in vivo, Echinochloa crus-galli; conditions: rated 4-5 weeks after treatment
Method in brief: as §2

[9] = tested on: ZEAMX (Corn, Field); experiment: Preemergence herbicidal evaluation; assay type: in vivo, Zea mays; conditions: rated 4-5 weeks after treatment
Method in brief: as §2

[10] = tested on: ECHORC (Watergrass (Calif.)); experiment: Postemergence weed control under flooded paddy conditions; assay type: in vivo, Echinochloa oryzoides; conditions: postemergence weeds, 3-4 weeks after treatment
Description: Results of herbicide evaluation are expressed on a rating scale (0-9). The scale is based upon a visual observation of plant stand, vigor, malformation, size, chlorosis and overall plant appearance as compared with a control.
Plastic containers containing weeds which are 3 to 5 cm tall and rice seedlings at the 1.5 to 2.5 leaf stage are flooded with water. The water is maintained at 1.5 to 3 cm above the soil surface for the duration of the experiment. Test compounds are applied as aqueous/ acetone mixtures 50/50 v/v directly into the flood water to provide the equivalent of about 0.0313 to 0.500 kg/ha of active ingredient. The treated containers are placed on greenhouse benches and cared for in accordance with conventional greenhouse procedures. Three to four weeks after treatment, the test is terminated and each container is examined and herbicidal effect rated according to the rating system provided in Example 37. The compounds evaluated are reported by compound number given in Example 37.

[11] = tested on: GLXMAW (Soybean, Williams); experiment: Postemergence herbicidal evaluation; assay type: in vivo, Glycine max, (L.) Merr. cv Williams; conditions: postemergence
Method in brief: as §1

[12] = tested on: GALAP (Galium); experiment: Preemergence herbicidal evaluation; assay type: in vivo, Galium aparine; conditions: rated 4-5 weeks after treatment
Method in brief: as §2

[13] = tested on: IPOHE (Morningglory, Ivyleaf); experiment: Preemergence herbicidal evaluation; assay type: in vivo, Ipomoea hederacea; conditions: rated 4-5 weeks after treatment
Method in brief: as §2

`CCC1SC(=Nc2cc(N3C(=O)C4=C(CCCC4)C3=O)c(F)cc2Cl)N(C)C1=O` (centres unmarked) [Compound 6, N-{4-chloro-5-[(5-ethyl-3-methyl-4-oxo-2-thiazolidinylidene)amino]-2-fluorophenyl}-1-cyclohexene-1,2-dicarboximide] gave an ABUTH herbicidal rating ([1]; rate 0.0157 kg/ha) of 7.0, an ABUTH herbicidal rating ([1]; rate 0.0313 kg/ha) of 8.0 and an ABUTH herbicidal rating ([1]; rate 0.0625 kg/ha) of 8.0. The ABUTH herbicidal rating ([1]; rate 0.1250 kg/ha) was 9.0, the ABUTH herbicidal rating ([1]; rate 0.2500 kg/ha) was 9.0 and the ABUTH herbicidal rating ([1]; rate 0.5000 kg/ha) was 9.0. It also gave an AMBEL herbicidal rating ([2]; rate 0.0157 kg/ha) of 2.0, an AMBEL herbicidal rating ([2]; rate 0.0313 kg/ha) of 2.0 and an AMBEL herbicidal rating ([2]; rate 0.0625 kg/ha) of 2.0. For the same compound, the AMBEL herbicidal rating ([2]; rate 0.1250 kg/ha) was 4.0, the AMBEL herbicidal rating ([2]; rate 0.2500 kg/ha) was 4.0 and the AMBEL herbicidal rating ([2]; rate 0.5000 kg/ha) was 4.0. For the same compound, the ECHCG herbicidal rating ([3]; rate 0.0157 kg/ha) was 0.0, the ECHCG herbicidal rating ([3]; rate 0.0313 kg/ha) was 0.0 and the ECHCG herbicidal rating ([3]; rate 0.0625 kg/ha) was 0.0. For the same compound, the ECHCG herbicidal rating ([3]; rate 0.1250 kg/ha) was 0.0, the ECHCG herbicidal rating ([3]; rate 0.2500 kg/ha) was 1.0 and the ECHCG herbicidal rating ([3]; rate 0.5000 kg/ha) was 2.0. For the same compound, the SETVI herbicidal rating ([4]; rate 0.0157 kg/ha) was 0.0, the SETVI herbicidal rating ([4]; rate 0.0313 kg/ha) was 0.0 and the SETVI herbicidal rating ([4]; rate 0.0625 kg/ha) was 0.0. It also gave an SETVI herbicidal rating ([4]; rate 0.1250 kg/ha) of 2.0, an SETVI herbicidal rating ([4]; rate 0.2500 kg/ha) of 2.0 and an SETVI herbicidal rating ([4]; rate 0.5000 kg/ha) of 2.0. It also gave a TRZAWR herbicidal rating ([5]; rate 0.0157 kg/ha) of 2.5, a TRZAWR herbicidal rating ([5]; rate 0.0313 kg/ha) of 2.5 and a TRZAWR herbicidal rating ([5]; rate 0.0625 kg/ha) of 3.0. It also gave a TRZAWR herbicidal rating ([5]; rate 0.1250 kg/ha) of 3.0, a TRZAWR herbicidal rating ([5]; rate 0.2500 kg/ha) of 3.5 and a TRZAWR herbicidal rating ([5]; rate 0.5000 kg/ha) of 3.5. The “CASOB preemergence herbicidal rating” value ([6]; rate 0.1250 kg/ha) was 0.0, the “CASOB preemergence herbicidal rating” value ([6]; rate 0.2500 kg/ha) was 0.0 and the “CASOB preemergence herbicidal rating” value ([6]; rate 0.5000 kg/ha) was 0.0. The “CHEAL preemergence herbicidal rating” value ([7]; rate 0.1250 kg/ha) was 2.0, the “CHEAL preemergence herbicidal rating” value ([7]; rate 0.2500 kg/ha) was 4.0 and the “CHEAL preemergence herbicidal rating” value ([7]; rate 0.5000 kg/ha) was 9.0. For the same compound, the “ECHCG preemergence herbicidal rating” value ([8]; rate 0.1250 kg/ha) was 0.0, the “ECHCG preemergence herbicidal rating” value ([8]; rate 0.2500 kg/ha) was 0.0 and the “ECHCG preemergence herbicidal rating” value ([8]; rate 0.5000 kg/ha) was 2.0. For the same compound, the “ZEAMX preemergence herbicidal rating” value ([9]; rate 0.1250 kg/ha) was 0.0, the “ZEAMX preemergence herbicidal rating” value ([9]; rate 0.2500 kg/ha) was 0.0 and the “ZEAMX preemergence herbicidal rating” value ([9]; rate 0.5000 kg/ha) was 0.0. The “Herbicidal rating ECHORC” value ([10]; rate 0.0313 kg/ha) was 0.0, the “Herbicidal rating ECHORC” value ([10]; rate 0.0625 kg/ha) was 0.0 and the “Herbicidal rating ECHORC” value ([10]; rate 0.1250 kg/ha) was 1.0. For the same compound, the “Herbicidal rating ECHORC” value ([10]; rate 0.2500 kg/ha) was 3.5 and the “Herbicidal rating ECHORC” value ([10]; rate 0.5000 kg/ha) was 3.5.
For `CN1C(=O)CS/C1=N/c1cc(-n2c(=O)cc(C(F)(F)F)n(C)c2=O)c(F)cc1Cl` [Compound 7], the ABUTH herbicidal rating ([1]; rate 0.0157 kg/ha) was 9.0, the ABUTH herbicidal rating ([1]; rate 0.0313 kg/ha) was 9.0 and the ABUTH herbicidal rating ([1]; rate 0.0625 kg/ha) was 9.0. For the same compound, the ABUTH herbicidal rating ([1]; rate 0.1250 kg/ha) was 9.0, the AMBEL herbicidal rating ([2]; rate 0.0157 kg/ha) was 5.0 and the AMBEL herbicidal rating ([2]; rate 0.0313 kg/ha) was 5.0. The AMBEL herbicidal rating ([2]; rate 0.0625 kg/ha) was 7.0, the AMBEL herbicidal rating ([2]; rate 0.1250 kg/ha) was 9.0 and the ECHCG herbicidal rating ([3]; rate 0.0157 kg/ha) was 2.0. It also gave an ECHCG herbicidal rating ([3]; rate 0.0313 kg/ha) of 0.0, an ECHCG herbicidal rating ([3]; rate 0.0625 kg/ha) of 3.0 and an ECHCG herbicidal rating ([3]; rate 0.1250 kg/ha) of 4.0. The SETVI herbicidal rating ([4]; rate 0.0157 kg/ha) was 5.0, the SETVI herbicidal rating ([4]; rate 0.0313 kg/ha) was 4.0 and the SETVI herbicidal rating ([4]; rate 0.0625 kg/ha) was 9.0. The SETVI herbicidal rating ([4]; rate 0.1250 kg/ha) was 9.0, the GLXMAW herbicidal rating ([11]; rate 0.0157 kg/ha) was 5.0 and the GLXMAW herbicidal rating ([11]; rate 0.0313 kg/ha) was 6.5. For the same compound, the GLXMAW herbicidal rating ([11]; rate 0.0625 kg/ha) was 7.5, the GLXMAW herbicidal rating ([11]; rate 0.1250 kg/ha) was 7.5 and the TRZAWR herbicidal rating ([5]; rate 0.0157 kg/ha) was 4.5. For the same compound, the TRZAWR herbicidal rating ([5]; rate 0.0313 kg/ha) was 3.0, the TRZAWR herbicidal rating ([5]; rate 0.0625 kg/ha) was 5.0 and the TRZAWR herbicidal rating ([5]; rate 0.1250 kg/ha) was 6.0. The “CASOB preemergence herbicidal rating” value ([6]; rate 0.0157 kg/ha) was 9.0, the “CASOB preemergence herbicidal rating” value ([6]; rate 0.0313 kg/ha) was 9.0 and the “CASOB preemergence herbicidal rating” value ([6]; rate 0.0625 kg/ha) was 9.0. For the same compound, the “CASOB preemergence herbicidal rating” value ([6]; rate 0.1250 kg/ha) was 8.0, the “CASOB preemergence herbicidal rating” value ([6]; rate 0.2500 kg/ha) was 9.0 and the “CHEAL preemergence herbicidal rating” value ([7]; rate 0.0157 kg/ha) was 9.0. The “CHEAL preemergence herbicidal rating” value ([7]; rate 0.0313 kg/ha) was 9.0, the “CHEAL preemergence herbicidal rating” value ([7]; rate 0.0625 kg/ha) was 9.0 and the “CHEAL preemergence herbicidal rating” value ([7]; rate 0.1250 kg/ha) was 9.0. The “CHEAL preemergence herbicidal rating” value ([7]; rate 0.2500 kg/ha) was 9.0, the “GALAP preemergence herbicidal rating” value ([12]; rate 0.0157 kg/ha) was 4.0 and the “GALAP preemergence herbicidal rating” value ([12]; rate 0.0313 kg/ha) was 7.5. For the same compound, the “GALAP preemergence herbicidal rating” value ([12]; rate 0.0625 kg/ha) was 9.0, the “GALAP preemergence herbicidal rating” value ([12]; rate 0.1250 kg/ha) was 9.0 and the “GALAP preemergence herbicidal rating” value ([12]; rate 0.2500 kg/ha) was 9.0. The “IPOHE preemergence herbicidal rating” value ([13]; rate 0.0313 kg/ha) was 4.0, the “IPOHE preemergence herbicidal rating” value ([13]; rate 0.0625 kg/ha) was 4.0 and the “IPOHE preemergence herbicidal rating” value ([13]; rate 0.1250 kg/ha) was 9.0. The “IPOHE preemergence herbicidal rating” value ([13]; rate 0.2500 kg/ha) was 9.0, the “ECHCG preemergence herbicidal rating” value ([8]; rate 0.0157 kg/ha) was 5.0 and the “ECHCG preemergence herbicidal rating” value ([8]; rate 0.0313 kg/ha) was 9.0. For the same compound, the “ECHCG preemergence herbicidal rating” value ([8]; rate 0.0625 kg/ha) was 9.0, the “ECHCG preemergence herbicidal rating” value ([8]; rate 0.1250 kg/ha) was 9.0 and the “ECHCG preemergence herbicidal rating” value ([8]; rate 0.2500 kg/ha) was 9.0. The “ZEAMX preemergence herbicidal rating” value ([9]; rate 0.0157 kg/ha) was 7.0, the “ZEAMX preemergence herbicidal rating” value ([9]; rate 0.0313 kg/ha) was 8.0 and the “ZEAMX preemergence herbicidal rating” value ([9]; rate 0.0625 kg/ha) was 8.5. The “ZEAMX preemergence herbicidal rating” value ([9]; rate 0.1250 kg/ha) was 8.5, the “ZEAMX preemergence herbicidal rating” value ([9]; rate 0.2500 kg/ha) was 9.0 and the “Herbicidal rating ECHORC” value ([10]; rate 0.0313 kg/ha) was 7.0. The “Herbicidal rating ECHORC” value ([10]; rate 0.0625 kg/ha) was 8.5, the “Herbicidal rating ECHORC” value ([10]; rate 0.1250 kg/ha) was 9.0 and the “Herbicidal rating ECHORC” value ([10]; rate 0.2500 kg/ha) was 9.0.
